Earlier results in patent US20230404934A1, “ON DEMAND AND LONG-TERM DRUG DELIVERY FROM DEGRADABLE NANOCAPSULES” (University of Maryland, Baltimore County, priority 2020, published 2023).

Settings: topical to the eye

Cc1ccc(=O)n(-c2ccccc2)c1 [pirfenidone, 5-methyl-1-phenylpyridin-2-one]
amount in the back of the eye after topical administration: no measurable amounts in the back of the eye
washout from the eye after topical administration: washes out very quickly, within minutes
